Here are results for one molecule from US6315907A (priority 1997, dated 2001).

The assay has as its system TSST-1. Type of assay: binding, Staphylococcus aureus.

Take `CCCCCCCCN` [n-octylamine]: the “adsorption ability for TSST-1” value was “enhanced to a great extent”.
